We go through 5 compounds from patent publication US9227991B2, “Anti-tumor bivalent platinum complex and preparation method for complex and ligand of complex” (SOUTHEAST UNIVERSITY, priority 2012, dated 2016).

Usually IC50 stands for the concentration that inhibits the measured activity by half. A higher IC50 goes with a need for much substance. For orientation: solubility means the dissolved amount per volume that the medium holds. Broadly, the LD50 is the dose at which mortality reaches 50%. Low values mean a more toxic substance, high ones a less toxic substance.

For data set [1], the system named is human lung cancer cell A549. The data set is described as follows: MTT cytotoxicity test, A549. It is filed as cell-based. The settings on record: 48 hours. How it is done:
(§1) This test example adopts MTT method to conduct cytotoxicity test on the complexes of the present invention and the common clinical anti-cancer platinum drugs.
(§2) Select cells in logarithmic phase, count them and inoculate them in a 96-well culture plate, at about 8000-10000 cells/well. Cultivate the cells overnight, administrate drug after the cells are attached to the wall, and set a drug group, a positive control group and a negative control group. The complex to be tested is prepared into a stock solution by using 5% glucose aqueous solution. Before use, it is diluted with cell culture medium into solutions at a series of concentrations. Each concentration has 3 duplicate wells. Cultivate for 48 hours after administration of drug, add 20 μL of 5 mg/mL MTT, incubate at 37° C. for 4 hours, remove the supernate and add 150 μL of DMSO-dissolved formazan. Determine OD value of every well at 490 nm wavelength by microplate reader, calculate inhibition rate, draw a concentration-inhibition rate curve and calculate value IC50.

In data set [2] the test system is human erythroleukemia cell K562. The data set is described as follows: MTT cytotoxicity test, K562. It is filed as cell-based. The settings on record: 48 hours. How it is done: as §1, §2
On the technique in general: Tetrazolium dyes change colour on reduction, which living cells bring about.

Data set [3] relates to human acute promyelocytic leukemia cell NB4. The data set is described as follows: MTT cytotoxicity test, NB4. It is filed as cell-based. The settings on record: 48 hours. How it is done: as §1, §2
Data set [4] relates to human breast cancer drug resistant cell MCF-7. The experiment in a line: MTT cytotoxicity test, MCF-7 drug resistant. The format is cell-based. The following applies: 48 hours. As for the experimental part:
as §1, §2

The test system of data set [5] is human gastric adenocarcinoma cell BGC823. The experiment in a line: MTT cytotoxicity test, BGC823. The format is cell-based. The settings on record: 48 hours. As for the experimental part: as §1, §2
The test system of data set [6] is human large cell lung cancer cell NCI-H460. The experiment in a line: MTT cytotoxicity test, NCI-H460. It is filed as cell-based. The following applies: 48 hours. How it is done: as §1, §2
In data set [7] the test system is human hepatoma carcinoma cell SMMC-7721. The data set is described as follows: MTT cytotoxicity test, SMMC-7721. The following applies: SMMC-7721, MTT, 48 hours. The format is cell-based. How it is done: as §1, §2
Data set [8] deals with human umbilical vein endothelial cell HUVEC. The experiment in a line: MTT cytotoxicity test, HUVEC. The settings on record: 48 hours. It is filed as cell-based. How it is done:
as §1, §2

The test system of data set [9] is human breast cancer cell MCF-7. The experiment in a line: MTT cytotoxicity test, MCF-7. The format is cell-based. The following applies: MCF-7, MTT, 48 hours. How it is done: as §1, §2
The subject of data set [10] is human breast cancer cell MDA-MB-231. The data set is described as follows: MTT cytotoxicity test, MDA-MB-231. It is filed as cell-based. The following applies: MDA-MB-231, MTT, 48 hours. How it is done:
as §1, §2

In the next data set the test system is mouse. The settings on record: cited from earlier work.
Data set [11] relates to human hepatoma carcinoma cell HepG-2. The experiment in a line: MTT cytotoxicity test, HepG2. It is filed as cell-based. The settings on record: 48 hours. As for the experimental part:
as §1, §2

The nature of another data set: Solubility in water. It is filed as physicochemical. As for the experimental part:
As for the platinum complex prepared by the method of the present invention, the molecular structures of the compounds are determined by H NMR, HR ESI-MS and elemental analysis and their solubility in water was determined.

Data set [12] in a line: Acute toxicity test in mice (iv), Bliss method. The settings on record: both, Kunming, mouse, in vivo, iv. How it is done: (§3) The toxicity of the two platinum complexes provided by the present invention was preliminarily researched.
(§4) Select 50 Kunming mice of clean grade, 25 males and 25 females, with body weight 18˜22 g, randomly divide them into 5 groups, 10 mice in each group, and fast for 12 hours. […] The acceptance capacity of an animal is 0.4 mL/20 g. Observe continuously for 14 days after administration, and record toxic symptoms and death of mice.

In data set [13] the test system is mouse-transplanted tumor S180 sarcoma. The data set is described as follows: Mouse-transplanted tumor animal model, S180. It is filed as in vivo, ICR mice. The following applies: S180 mice; for Number of Animal End of the test: 10 at beginning. As for the experimental part:
(§5) This test example adopts mouse-transplanted tumor animal model method to test the inhibitory effects of the complexes provided by the present invention on animal-transplanted tumor S180 sarcoma and Heps tumor.
Get ICR mice and inoculate solid tumor according to the research method of transplanted tumor. […] Administrate drug by intravenous injection for the first time 24 hours (d1) after the inoculation, administrate drug once every other day for a total of 4 times, at a dose of 0.4 ml/20 g each time. Kill and weigh the tumor-bearing mice days (d10) after the inoculation, separate and weigh the tumor mass, and conduct statistical treatment of all the obtained data (t-test). The inhibitory effect of the complexes on mouse-transplanted tumors S180 and Heps is shown in Table 2 and Table 3 respectively.

The test system of data set [14] is mouse-transplanted tumor Heps. The experiment in a line: Mouse-transplanted tumor animal model, Heps. It is filed as in vivo, ICR mice. The settings on record: Heps mice; for Number of Animal End of the test: 8 at beginning. How it is done: as §5
Get ICR mice and inoculate solid tumor according to the research method of transplanted tumor. Weigh the mice 24 hours after the inoculation and randomly divide them into 7 groups, 8 mice per drug group. Administrate drug by intravenous injection for the first time 24 hours (d1) after the inoculation, administrate drug once every other day for a total of 4 times, at a dose of 0.4 ml/20 g each time. Kill and weigh the tumor-bearing mice days (d10) after the inoculation, separate and weigh the tumor mass, and conduct statistical treatment of all the obtained data (t-test). The inhibitory effect of the complexes on mouse-transplanted tumors S180 and Heps is shown in Table 2 and Table 3 respectively.

The subject of a further data set is Kunming mice. The data set is described as follows: Acute toxicity test in mice (iv), Bliss method. The following applies: mice, iv via caudal vein, 14 days observation, Bliss method. How it is done: as §3, §4
The mark [15] stands for this setting: 25 mg/kg iv every other day x4, X ± SD.

For `N.N.O=C([O-])C1(C(=O)[O-])CCC1.[Pt+2]` [Carboplatin, carboplatin], the IC50 in data set [1] was determined as 137 µM; in [2] it was 118 µM; in data set [3] it was 12.6 µM; in data set [4] it was 457 µM; in data set [5], 43.2 µM; in [6], 30.6 µM. Besides, the IC50 in data set [7] was determined as 52.7 µM; in data set [8], 102 µM; in data set [9] it was 109 µM; in data set [10] it was 93.3 µM; in data set [11], 99.1 µM. For the same compound, the “mouse LD50 values in literature” value in the data set on mouse is 139.00 mg/kg.

Consider `N.N.[Cl][Pt][Cl]` [Cis-platinum, cis-platinum], for which the half-maximal inhibitory concentration (IC50) in [1] stood at 16.6 µM; in data set [2], 10.9 µM; in data set [4], 32.9 µM; in data set [5], 5.44 µM; in data set [8], 11.2 µM; in data set [9] it was 32.9 µM. In addition, the IC50 in [10] came out at 18.3 µM; in data set [11] it was 2.11 µM.

The compound `[NH2][Pt]1([NH2])[O]C(=O)C2(CC(=O)C2)C(=O)[O]1` [GSH-5, cis-[3-ketone cyclobutane-1,1-dicarboxylic acid radical.diamineplatinum (II)]] had a solubility in the data set “Solubility in water” of 16 mg/mL. The compound also registered an LD50 at 14 days in data set [12] of 150 mg/kg. Moreover, the “Body weight (g) After administration” value was 22.50 ± 1.91 g in [13] (15 mg/kg iv every other day x4, X ± SD); 18.13 ± 1.76 g in data set [13] (30 mg/kg iv every other day x4, X ± SD); 22.13 ± 3.52 g in data set [14] (setting [15]); 13.50 ± 0.50 g in data set [14] (50 mg/kg iv every other day x4, X ± SD). For the same compound, the “Number of Animal End of the test” value in [13] (15 mg/kg iv every other day x4) came out at 10; in [13] (30 mg/kg iv every other day x4), 8; in [14] (25 mg/kg iv every other day x4), 8; in data set [14] (50 mg/kg iv every other day x4) it was 2.

For `N[C@@H]1CCCC[C@H]1N.O=C1CC2(C1)C(=O)[O][Pt][O]C2=O` [GSH-6, cis-[3-ketone-1,1-cyclobutane-dicarboxylic acid radical.trans-1,2-cyclohexanediamineplatinum(II)]], the IC50 in [1] turned out to be 47.5 µM; in data set [2], 36 µM; in data set [3], 3.1 µM; in data set [4], 1350 µM; in data set [5], 8.9 µM; in data set [6] it was 11.9 µM. Moreover, the IC50 stood at 216 µM in data set [7]; 68.9 µM in data set [8]; 34.2 µM in [9]; 36.3 µM in data set [10]; 31.6 µM in data set [11]. Also, in the data set on Kunming mice, the “LD50 (acute toxicity test)” value was 100 mg/kg. The “Body weight (g) After administration” value came to 20.60 ± 2.50 g in data set [13] (10 mg/kg iv every other day x4, X ± SD); 18.60 ± 2.24 g in data set [13] (20 mg/kg iv every other day x4, X ± SD); 18.10 ± 1.10 g in data set [14] (setting [15]). Moreover, the “Tumor inhibition rate (%)” value amounted to 33.13% in data set [13] (10 mg/kg iv every other day x4, d10); 46.61% in data set [13] (20 mg/kg iv every other day x4, d10); 35.44% in [14] (25 mg/kg iv every other day x4, d10). Besides, the “Tumor weight” value in data set [13] (10 mg/kg iv every other day x4, d10, X ± SD) is recorded as 0.65 ± 0.14 g; in data set [13] (20 mg/kg iv every other day x4, d10, X ± SD), 0.52 ± 0.13 g; in data set [14] (25 mg/kg iv every other day x4, d10, X ± SD), 0.84 ± 0.17 g. The “Number of Animal End of the test” value in data set [13] (10 mg/kg iv every other day x4) is reported as 10; in data set [13] (20 mg/kg iv every other day x4), 10; in data set [14] (25 mg/kg iv every other day x4), 8; in data set [14] (50 mg/kg iv every other day x4) it was 0.

Take `O=C1[O][Pt]2([NH][C@@H]3CCCC[C@H]3[NH]2)[O]C1=O` [Oxaliplatin, oxaliplatin]: the IC50 in data set [1] was 70.3 µM; in [2], 23.6 µM; in data set [4], 351 µM; in data set [5], 7.92 µM; in [6], 23.1 µM; in data set [7] it was 32.3 µM. The IC50 in [8] came out at 16.3 µM; in data set [9], 25.7 µM; in [10], 29.1 µM; in data set [11], 27.2 µM.
